# Source: patent publication US20240299597A1, “3-Iodopropyl-1,2,3-Triazol-1-yl, 3-Bromopropyl-1,2,3-Triazol-1-yl, and Derivatives for Uses in Labeling” (Emory University, priority 2021, published 2024)
# Experiment: Storage stability / shelf life of F-18 labeling precursors
# Assay type: physicochemical
# Settings: for stability to storage compared to the tosylate and 4-bromo-tosylate derivatives: comparison in the FIG. 1C legend; for stability on storage: stored below 0 C
Compound,stability to storage compared to the tosylate and 4-bromo-tosylate derivatives,stability on storage
"CC(=O)OCC1OC(OC2C(COC(C)=O)OC(OC3C(COC(C)=O)OC(OCCCn4cc(CCCI)nn4)C(OC(C)=O)C3OC(C)=O)C(OC(C)=O)C2OC(C)=O)C(OC(C)=O)C(OC(C)=O)C1OC(C)=O (stereo not shown) [3-iodopropyl-precursor, 2-(acetoxymethyl)-6-((4,5-diacetoxy-2-(acetoxymethyl)-6-((4,5-diacetoxy-2-(acetoxymethyl)-6-(3-(4-(3-iodopropyl)-1H-1,2,3-triazol-1-yl)propoxy)tetrahydro-2H-pyran-3-yl)oxy)tetrahydro-2H-pyran-3-yl)oxy)tetrahydro-2H-pyran-3,4,5-triyl triacetate]",more statable to storage,stable
"CC(=O)OCC1OC(OC2C(COC(C)=O)OC(OC3C(COC(C)=O)OC(OCCCn4cc(CCCBr)nn4)C(OC(C)=O)C3OC(C)=O)C(OC(C)=O)C2OC(C)=O)C(OC(C)=O)C(OC(C)=O)C1OC(C)=O (stereo not shown) [3-bromopropyl-precursor, 2-(acetoxymethyl)-6-((4,5-diacetoxy-2-(acetoxymethyl)-6-((4,5-diacetoxy-2-(acetoxymethyl)-6-(3-(4-(3-bromopropyl)-1H-1,2,3-triazol-1-yl)propoxy)tetrahydro-2H-pyran-3-yl)oxy)tetrahydro-2H-pyran-3-yl)oxy)tetrahydro-2H-pyran-3,4,5-triyl triacetate]",more statable to storage,stable
